Results taken from publication PMC11721939, “Novel tetrahydronaphthalen-1-yl-phenethyl ureas: synthesis and dual antibacterial-anticancer activities” (Journal of Enzyme Inhibition and Medicinal Chemistry, 2023).
pIC50: −log10 of the molar value. In brackets after ≈: the same amount, converted by molar mass. Where two headings read alike, the source gives them in different places.

Experiments:
[1] = test system: all tested bacterial strains; assay: Antibacterial activity (MIC) summarised over all tested bacterial strains; type: cell-based; conditions: against the studied bacteria
Description: (§1) The bacteria employed for evaluation included Acinetobacter baumannii ATCC 1605, Enterococcus faecalis ATCC 49452, Pseudomonas aeruginosa ATCC 9027, and Staphylococcus aureus MRSA ATCC 43300. These strains were sourced from the Molecular Biology and Genetics Laboratory at Erzurum Technical University. They were immersed in Mueller-Hinton Broth (MHB) and then incubated at a temperature of 37 °C for a duration of 16–24 h.
Bacteria were adjusted to a McFarland standardisation of 0.5, equivalent to a cell density of 1.5 × 10^8/ml, and were then introduced into MHB. Subsequently, a 100 μl volume of this bacterial mixture was spread onto Mueller-Hinton agar plates. Sterile empty discs were then treated with the formulated ureas at concentrations of 1000, 500, and 250 µM. Oflaxin ([…]) and netilmicin ([…]) were used as positive controls, while DMSO served as the negative control. The plates were then placed in an incubator at 37 °C for a period ranging from 24 to 72 h, depending on the optimal conditions. Post incubation, the diameter of the inhibition zones was gauged to determine the antibacterial efficacy. […]
The synthesised ureas’ minimum inhibitory concentrations (MICs) against the bacterial samples were ascertained using the microdilution broth technique. […] Post incubation, the growth of the bacteria was assessed at 600 nm using the Fluoroskan Ascent® FL. […]

[2] = WST-8 cytotoxicity assay; type: cell-based, human; conditions: human, SH-SY5Y cells, SH-SY5Y, 48 h, read-out: Cell viability
Description: (§2) The cells in culture were frequently sub-cultured, about 2–3 times weekly, until they reached a confluence of 80–90%. The experiments were organised into seven cell groups as follows: group I served as the control, while groups II through VII were pre-treated with varying dosages of the synthesised ureas (ranging from 12.5 µM to 500 µM). The cytotoxic potential of these ureas was assessed in vitro using the Cell Viability Detection Kit-8 (CVDK-8, Ecotech Biotechnology, Erzurum, Turkey), a method based on WST-8 quantification for human primary dermal fibroblasts and cervical cancer cells. Healthy fibroblast, HeLa, and SH-SY5Y cells were allocated in 96-well plates, with each well containing 5 × 10^3 cells in 100 µL of DMEM:F12 (supplemented with 1% penicillin/streptomycin and 10% FBS). After an overnight growth, these cells were exposed to specified concentrations of the synthesised ureas for a duration of 48 h at 37 °C in a 5% CO2 atmosphere. Cisplatin acted as the positive control with concentration gradients of 0–250 µM for HeLa cells and 0–20 µM for the SH-SY5Y cells. Post incubation, in sterile, dimly lit conditions, 10% WST-8 solution was added to every well and further incubated at 37 °C within 5% CO2 for another 3–4 h. The optical density of the 96-well plate was gauged at a 450 nm wavelength using a spectrophotometer (BioTek, EPOCH, Santa Clara, CA). The control group’s main purpose was to measure the absorbance of just the cells and the growth medium.

[3] = test system: HeLa cells; assay: WST-8 cytotoxicity assay; type: cell-based, human; conditions: for pIC50: Homo sapiens, HeLa cells, 48 h, WST-8, n = 4, read-out: Cytotoxic activity IC50; for SI value (HeLa cells): IC50 PCS-201-012 fibroblasts / IC50 HeLa, n = 4
Description: as §2

[4] = test system: SH-SY5Y cells; assay: WST-8 cytotoxicity assay; type: cell-based, human; conditions: for pIC50: SH-SY5Y, 48 h, WST-8, n = 4, read-out: Cytotoxic activity IC50; for SI value (SH-SY5Y cells): IC50 PCS-201-012 fibroblasts / IC50 SH-SY5Y, n = 4
Description: as §2

[5] = WST-8 cytotoxicity assay; type: cell-based; conditions: human, PCS-201-012 healthy primary dermal fibroblast cells, PCS-201-012 healthy fibroblast cells, WST-8, n = 4, read-out: Cytotoxic activity IC50
Description: as §2

[6] = test system: Pseudomonas aeruginosa ATCC 9027; assay: Micro-well dilution assay (MIC); type: cell-based; conditions: for MIC: ATCC9027
Description: as §1
(§3) The synthesised ureas’ minimum inhibitory concentrations (MICs) against the bacterial samples were ascertained using the microdilution broth technique. Utilising a method of twofold serial dilutions, the ureas were diluted to concentrations spanning from […]. The bacterial turbidity was set to match the 0.5 McFarland standard. In the 96-well plates, each well received 100 μl of MHB and 5 μl of the bacteria being tested. For the negative control, 195 μl of MHB and 5 μl of the bacterial sample were added. The plate was then covered with a sterile seal and allowed to incubate for 24 h at a temperature of 37 °C. Post incubation, the growth of the bacteria was assessed at 600 nm using the Fluoroskan Ascent® FL. The MIC represented the smallest amount of the chemical that effectively halted bacterial growth. This procedure was conducted three times.

[7] = test system: Acinetobacter baumannii ATCC 1605; assay: Micro-well dilution assay (MIC); type: cell-based; conditions: for MIC: ATCC1605
Description: as §1, §3

[8] = test system: Enterococcus faecalis ATCC 49452; assay: Micro-well dilution assay (MIC); type: cell-based; conditions: for MIC: ATCC49452
Description: as §1, §3

[9] = test system: Staphylococcus aureus MRSA ATCC 43300; assay: Micro-well dilution assay (MIC); type: cell-based
Description: as §1, §3

[10] = test system: Pseudomonas aeruginosa ATCC 9027; assay: Disc diffusion method; type: cell-based; conditions: for zone of inhibition at 250 µM: ATCC9027, 250 µM; for zone of inhibition at 250 µM / zone of inhibition at 500 µM / zone of inhibition at 1000 µM: read-out: Disc diffusion test, inhibitory zone diameter; for zone of inhibition at 500 µM: ATCC9027, 500 µM; for zone of inhibition at 1000 µM: ATCC9027, 1000 µM
Description: as §1
(§4) Bacteria were adjusted to a McFarland standardisation of 0.5, equivalent to a cell density of 1.5 × 10^8/ml, and were then introduced into MHB. Subsequently, a 100 μl volume of this bacterial mixture was spread onto Mueller-Hinton agar plates. Sterile empty discs were then treated with the formulated ureas at concentrations of 1000, 500, and 250 µM. Oflaxin ([…]) and netilmicin ([…]) were used as positive controls, while DMSO served as the negative control. The plates were then placed in an incubator at 37 °C for a period ranging from 24 to 72 h, depending on the optimal conditions. Post incubation, the diameter of the inhibition zones was gauged to determine the antibacterial efficacy. This entire process was replicated three times.

[11] = test system: Acinetobacter baumannii ATCC 1605; assay: Disc diffusion method; type: cell-based; conditions: for zone of inhibition at 250 µM: ATCC1605, 250 µM; for zone of inhibition at 250 µM / zone of inhibition at 500 µM / zone of inhibition at 1000 µM: read-out: Disc diffusion test, inhibitory zone diameter; for zone of inhibition at 500 µM: ATCC1605, 500 µM; for zone of inhibition at 1000 µM: ATCC1605, 1000 µM
Description: as §1, §4

[12] = test system: Enterococcus faecalis ATCC 49452; assay: Disc diffusion method; type: cell-based; conditions: for zone of inhibition at 500 µM: ATCC49452, 500 µM; for zone of inhibition at 1000 µM: ATCC49452, 1000 µM
Description: as §1, §4

[13] = test system: Staphylococcus aureus MRSA ATCC 43300; assay: Disc diffusion method; type: cell-based; conditions: for Standard antibiotic disc, inhibitory zone diameter: Staphylococcus aureus MRSA; for zone of inhibition at 250 µM / zone of inhibition at 500 µM / zone of inhibition at 1000 µM: Staphylococcus aureus, read-out: Disc diffusion test, inhibitory zone diameter
Description: as §1, §4

[14] = test system: SH-SY5Y cells; conditions: cited from earlier work
[15] = test system: HeLa cells; conditions: cited from earlier work
[16] = test system: PCS-201-012 cells; design: method as in PMID 27488500; conditions: fibroblast cells (PCS-201-012 column), cisplatin; read-out: Cytotoxic activity IC50; cited from earlier work
[17] = read-out: Disc diffusion test, inhibitory zone diameter
[18] = read-out: Cytotoxic activity IC50, melphalan control
[19] = read-out: Cytotoxic activity IC50, cisplatin positive control

Compound | pIC50 [3] | pIC50 ([4]; Homo sapiens) | IC50 at 48 h [5] [µM] | melting point [°C] | SI value (HeLa cells) [3] | SI value (SH-SY5Y cells) [4] | MIC [6] [µM] | MIC [7] [µM] | MIC [8] [µM] | MIC [9] [µM] | zone of inhibition at 250 µM [10] [mm] | zone of inhibition at 500 µM [10] [mm] | zone of inhibition at 1000 µM [10] [mm] | zone of inhibition at 250 µM [11] [mm] | zone of inhibition at 500 µM [11] [mm] | zone of inhibition at 1000 µM [11] [mm] | zone of inhibition at 500 µM [12, 17] [mm] | zone of inhibition at 1000 µM [12, 17] [mm] | zone of inhibition at 500 µM [13] [mm] | zone of inhibition at 1000 µM [13] [mm] | other results
COc1cccc2c1CCCC2NC(=O)NCCc1ccccc1 (stereo not shown) [Compound 14, 1-(5-methoxy-1,2,3,4-tetrahydronaphthalen-1-yl)-3-phenethylurea] | 5.59 | 5.01 | 7.9 |  |  |  |  |  |  |  |  |  |  |  |  |  |  |  |  |  | Antibacterial properties (in words) [1]: did not display any antibacterial properties; viability at 48 h, 12.5 µM ([2]; 12.5 µM): 25.5%; viability at 48 h, 25 µM ([2]; 25 µM): 8.4%; viability at 48 h, 50 µM ([2]; 50 µM): 4.68%; viability at 48 h, 100 µM ([2]; 100 µM): 4.87%; viability at 48 h, 300 µM ([2]; 300 µM): 3.77%; viability at 48 h, 500 µM ([2]; 500 µM): 1.67%
CC1COc2c(N3CCN(C)CC3)c(F)cc3c(=O)c(C(=O)O)cn1c23 (stereo not shown) [OFX, ofloxacin, reference compound] |  |  |  |  |  |  |  |  |  |  |  |  |  |  |  |  |  |  |  |  | MIC of standard antibiotics [6]: 11.4 µg/mL; MIC of standard antibiotics [7]: 0.5 µg/mL; MIC of standard antibiotics [8]: 2.5 µg/mL; MIC of standard antibiotics [9]: 1.2 µg/mL; Standard antibiotic disc, inhibitory zone diameter ([10]; 10 μg/disc): 23 mm; Standard antibiotic disc, inhibitory zone diameter ([11]; 10 μg/disc): 16 mm; Standard antibiotic disc, inhibitory zone diameter ([12]; 10 μg/disc): 11 mm; Standard antibiotic disc, inhibitory zone diameter ([13]; 10 μg/disc): 24 mm
COc1cccc(CCNC(=O)NC2CCCc3c(OC)cccc32)c1 (stereo not shown) [Compound 16, 1-(5-Methoxy-1,2,3,4-tetrahydronaphthalen-1-yl)-3-(3-methoxyphenethyl)urea] | 4.49 | 4.72 | > 500 | 155 to 157 | 15.4 | 26.10 | 7.81 (≈ 2.77 µg/mL) | 7.81 (≈ 2.77 µg/mL) | 3.9 (≈ 1.38 µg/mL) | 7.81 (≈ 2.77 µg/mL) | 7 | 8 | 10 | 5 | 10 | 13 | 6 | 7 | 6 | 13 | zone of inhibition at 250 µM [13]: 5 mm
N[C@@H](Cc1ccc(N(CCCl)CCCl)cc1)C(=O)O [Melphalan, melphalan] |  |  |  |  |  |  |  |  |  |  |  |  |  |  |  |  |  |  |  |  | pIC50 [14, 18]: 5.66; pIC50 [15, 18]: 4.21
COc1ccccc1CCNC(=O)NC1CCCc2c(OC)cccc21 (stereo not shown) [Compound 15, 1-(5-Methoxy-1,2,3,4-tetrahydronaphthalen-1-yl)-3-(2-methoxyphenethyl)urea] | 3.85 | 5.05 | 226 | 174 to 176 | 1.58 | 25.26 | 15.6 (≈ 5.54 µg/mL) |  |  | 15.6 (≈ 5.54 µg/mL) | 5 | 5 | 5 |  |  |  |  |  | 5 | 6 | pIC50 [4]: 5.05
COc1ccc(CCNC(=O)NC2CCCc3c(OC)cccc32)cc1OC (stereo not shown) [Compound 17, 1-(3,4-Dimethoxyphenethyl)-3-(5-methoxy-1,2,3,4-tetrahydronaphthalen-1-yl)urea] | 3.60 | 5.01 | 380 | 168 to 170 | 1.51 | 39.08 | 7.81 (≈ 3 µg/mL) | 7.81 (≈ 3 µg/mL) | 0.97 (≈ 0.373 µg/mL) | 7.81 (≈ 3 µg/mL) | 7 | 10 | 10 | 6 | 8 | 15 | 7 | 10 | 13 | 14 | zone of inhibition at 250 µM [13]: 8 mm
CCN[C@@H]1C[C@H](N)[C@@H](O[C@H]2OC(CN)=CC[C@H]2N)[C@H](O)[C@H]1O[C@H]1OC[C@](C)(O)[C@H](NC)[C@H]1O [NET30, netilmycin, reference compound] |  |  |  |  |  |  |  |  |  |  |  |  |  |  |  |  |  |  |  |  | MIC of standard antibiotics [6]: 4 µg/mL; MIC of standard antibiotics [7]: 4 µg/mL; MIC of standard antibiotics [8]: 32 µg/mL; MIC of standard antibiotics [9]: 0.8 µg/mL; Standard antibiotic disc, inhibitory zone diameter ([10]; 30 μg/disc): 16 mm; Standard antibiotic disc, inhibitory zone diameter ([11]; 30 μg/disc): 13 mm; Standard antibiotic disc, inhibitory zone diameter ([12]; 30 μg/disc): 9 mm; Standard antibiotic disc, inhibitory zone diameter ([13]; 30 μg/disc): 21 mm
COc1ccc(CCNC(=O)NC2CCCc3c(OC)cccc32)cc1 (stereo not shown) [Compound 18, 1-(5-Methoxy-1,2,3,4-tetrahydronaphthalen-1-yl)-3-(4-methoxyphenethyl)urea] | 3.44 | 4.99 | 374 | 150 to 152 | 1.02 | 36.72 | 3.9 (≈ 1.38 µg/mL) | 7.81 (≈ 2.77 µg/mL) | 0.97 (≈ 0.344 µg/mL) | 3.9 (≈ 1.38 µg/mL) | 9 | 10 | 15 | 6 | 10 | 16 | 7 | 13 | 12 | 15 | zone of inhibition at 250 µM ([12]; ATCC49452, 250 µM, read-out: Disc diffusion test, inhibitory zone diameter): 5 mm; zone of inhibition at 250 µM [13]: 5 mm
N.N.[Cl][Pt][Cl] [Cisplatin, cis-diammineplatinum(II) dichloride] |  |  |  |  |  |  |  |  |  |  |  |  |  |  |  |  |  |  |  |  | pIC50 [14, 19]: 5.00; pIC50 [16]: < 4.00; pIC50 [15, 19]: < 4.30
